From article PMC6723402, “Secondary Metabolites with α-Glucosidase Inhibitory Activity from the Mangrove Fungus Mycosphaerella sp. SYSU-DZG01” (Marine Drugs, 2019)

Tests used:
[1] = DPPH· radical scavenging (antioxidant) assay; conditions: 30 min; for Antioxidant % Inhibition (100 μM): DPPH· scavenging at 100 μM; for EC50: DPPH· scavenging
Description: The DPPH· scavenging was assayed according to the reported method. The DPPH radical scavenging test was performed in 96-well microplates. Testing materials (compounds 1–11) were added to 150 μL (0.16 mmol/L) DPPH solution in MeOH at a range of 50 μL solutions of different concentrations (2, 25, 50 and 100 μM). After 30 min, absorbance at 517 nm was measured and the percentage of activity was calculated. Ascorbic acid was used as a positive control.

α-glucosidase = α-glucosidase inhibitory activity assay (p-nitrophenyl glycoside substrate, 96-well, 405 nm); format: biochemical; conditions: PBS pH 7.0, 37 °C
Description: The α-glucosidase inhibitory activity was assayed according to the reported method. The inhibitory activity of α-glucosidase was tested in the 96-well plated with […] PBS (KH2PO4-K2HPO4, pH 7.0) buffer solution each. […] The assay was conducted in a 100 μL reaction system containing 20 μL enzyme stock solution, 69 μL PBS buffers and 1 μL of DMSO or testing materials. After 10 min incubation at 37 °C, 10 μL of the substrate was added and incubated for 20 min at 37 °C. The Absorbance which measured by a BIO-RAD (iMark) microplate reader at 405 nm was used to calculate the inhibitory activity according to the equation:η (%) = [(B − S)/B] × 100%(1) η (%) is the percentage of inhibition; B is the assay medium with DMSO; S is the assay medium with compound. The results of IC50 values were calculated by the nonlinear regression analysis.

| Molecule | Antioxidant % Inhibition (100 μM) [1] | EC50 [1] | IC50 (α-glucosidase) | melting point |
| --- | --- | --- | --- | --- |
| 1,3-dihydro-5-methoxy-7-methylisobenzofuran [Compound 6] | 65% | 59.1 µM | > 50 µM |  |
| O=C1O[C@H]([C@@H](O)CO)C(O)=C1O [Ascorbic acid, ascorbic acid, reference compound] | 92% | 22.4 µM |  |  |
| CC1=CC2C=C(C)C(C)C3C(CC(C)C)NC(=O)C23C(=O)C2C3OC(c4c(C)c(O)c(O)c(O)c43)C2C(=O)CCC1 (stereo not drawn) [Compound 1, asperchalasine I] | 56% | 77.8 µM | 17.1 µM |  |
| CC1=C(C)C2(C)C(=O)C(O)(C1=O)C1(C)C(=O)C2(O)C(=O)C(C)=C1C [Compound 2, dibefurin B] | <50% |  | > 50 µM |  |
| CC(O)C1OCc2c(O)cccc21 [Compound 3, (R)-9-((R)-10-hydroxyethyl)-7,9-dihydroisobenzofuran-1-ol] | <50% |  | > 50 µM | 89.8 to 91.9 °C |
| COC(=O)c1c(C)c(O)c(O)c(O)c1C=O [Compound 4, 2-methoxycarbonyl-4,5,6-trihydroxy-3-methyl-benzaldehyde] | 57% | 85.8 µM | > 50 µM | 95.9 to 97.8 °C |
| Cc1c(O)c(O)c(O)c2c1COC2=O [Compound 5, epicoccone B] | <50% |  | > 50 µM |  |
| Cc1c(O)cc(O)c(C(=O)OC[C@@H](O)[C@H](O)[C@H](O)CO)c1C [Compound 7, paeciloside A] | <50% |  | > 50 µM |  |
| Cc1c(O)c(O)c(O)c(C=O)c1-c1cc2c(C=O)c(C)c(O)c(O)c2o1 [Compound 8, epicoccolide B] | 89% | 16.3 µM | 26.7 µM |  |
